Reference: the NIST ThermoML archive (doi:10.1021/je060271a)

Details: 323.16 K, Liquid, Vibrating tube method

CCCCCC(=O)OCC(COC(=O)CCCCC)(COC(=O)CCCCC)COC(=O)CCCCC [pentaerythritol tetrahexanoate]
Details	mass density [kg/m3]
24638 kPa	989
24665 kPa	988.9
24693 kPa	988.9
24716 kPa	988.9
24744 kPa	989
24772 kPa	989
24795 kPa	988.9
24822 kPa	989
24849 kPa	989
24876 kPa	989.1
24905 kPa	989
24928 kPa	989.2
24956 kPa	989.1
24984 kPa	989.2
25012 kPa	989.1
25040 kPa	989.2
25063 kPa	989.1
25092 kPa	989.2
25120 kPa	989.4
25148 kPa	989.3
25172 kPa	989.1
25200 kPa	989.2
25228 kPa	989.4
25257 kPa	989.3
25286 kPa	989.2
25314 kPa	989.3
25339 kPa	989.4
25368 kPa	989.4
25397 kPa	989.3
25422 kPa	989.4
25450 kPa	989.4
25480 kPa	989.3
25509 kPa	989.4
26056 kPa	989.7
26083 kPa	989.7
26111 kPa	989.8
26138 kPa	989.8
26161 kPa	989.8
26189 kPa	989.8
26217 kPa	989.8
26244 kPa	989.9
26266 kPa	989.9
26294 kPa	989.9
26321 kPa	989.9
26349 kPa	989.9
26377 kPa	989.9
26405 kPa	990
26428 kPa	990
26456 kPa	990
26485 kPa	990
26516 kPa	990
26539 kPa	990.1
26567 kPa	990.1
26596 kPa	990.2
26620 kPa	990.1
26648 kPa	990.1
26677 kPa	990.1
26706 kPa	990.2
26734 kPa	990.2
27187 kPa	990.3
27218 kPa	990.5
27243 kPa	990.5
27273 kPa	990.4
27304 kPa	990.6
27334 kPa	990.6
27359 kPa	990.6
27390 kPa	990.6
27420 kPa	990.5
27451 kPa	990.6
27481 kPa	990.7
27507 kPa	990.6
27538 kPa	990.7
27569 kPa	990.7
27601 kPa	990.7
27627 kPa	990.7
27659 kPa	990.8
27690 kPa	990.8
27722 kPa	990.8
27748 kPa	990.8
27781 kPa	990.7
27814 kPa	990.9
27846 kPa	990.8
27871 kPa	990.8
27898 kPa	991
27926 kPa	990.9
27954 kPa	990.9
27978 kPa	991
28006 kPa	990.8
28034 kPa	990.9
28308 kPa	991.1
28332 kPa	991.2
28361 kPa	991.2
28389 kPa	991.2
28418 kPa	991.2
28471 kPa	991.3
28499 kPa	991.1
28529 kPa	991.2
28553 kPa	991.1
28582 kPa	991.2
28611 kPa	991.3
28640 kPa	991.4
29189 kPa	991.7
29221 kPa	991.7
29253 kPa	991.7
29279 kPa	991.7
29311 kPa	991.8
29343 kPa	991.8
29373 kPa	991.8
29395 kPa	991.8
29423 kPa	991.8
29446 kPa	991.7
29473 kPa	991.8
29500 kPa	991.8
29527 kPa	991.9
29603 kPa	991.9
29630 kPa	991.8
29657 kPa	992.1
29680 kPa	992
29707 kPa	992
29734 kPa	992
29999 kPa	992.1
30027 kPa	992.1
30055 kPa	992.3
30079 kPa	992.1
30107 kPa	992.1
30135 kPa	992.2
30159 kPa	992.4
30188 kPa	992.3
30217 kPa	992.3
30245 kPa	992.2
30273 kPa	992.4
30301 kPa	992.4
30326 kPa	992.2
30354 kPa	992.4
30383 kPa	992.3
30407 kPa	992.4
30436 kPa	992.4
30579 kPa	992.4
30610 kPa	992.4
30641 kPa	992.5
30672 kPa	992.6
30697 kPa	992.5
30725 kPa	992.6
30749 kPa	992.7
30774 kPa	992.6
